The target in data set [1] is T1, Prostaglandin E2 receptor EP2 subtype (Homo sapiens, UniProt P43116). Put plainly: Binding affinity at human prostaglandin EP2 receptor.
The target of data set [2] is T2, Prostaglandin E2 receptor EP4 subtype (Homo sapiens, UniProt P35408). In words: Binding affinity at human prostaglandin EP4 receptor.
The target of data set [3] is T2, Prostaglandin E2 receptor EP4 subtype. Put plainly: Agonist activity at human prostaglandin EP4 receptor. It is filed as functional.
Data set [4] concerns the target T1, Prostaglandin E2 receptor EP2 subtype. In words: Agonist activity at human prostaglandin EP2 receptor. It is filed as functional.
The species named for a further data set is Homo sapiens. Put plainly: Selectivity for human EP4 over human EP2 receptor.
A short description of data set [5]: Apparent permeability of the compound. The data set is classed as ADME. The note with it: not told.
A short description of data set [6]: Half life in rat. The note with it: in vivo. The data set is classed as ADME, organism-based.
The nature of data set [7]: Fraction unbound ligand in rat. The data set is classed as ADME.
A short description of data set [8]: Solubility in HBSS. It is filed as physicochemical.
Data set [9] can be described thus: Solubility in saline. The data set is classed as physicochemical.
Data set [10] in a line: Metabolic stability in human liver microsomes after 1 hr. The data set is classed as ADME, Microsome. The note with it: read-out: Stability.
The nature of data set [11]: Oral bioavailability in rat. It is filed as ADME, organism-based. The note with it: in vivo.
The nature of data set [12]: Metabolic stability in rat liver microsomes after 1 hr. The data set is classed as ADME, Microsome. The note with it: read-out: Stability.
The next data set deals with Mus musculus. In words: Induction of ovulation in sc dosed CD1 mouse. It is filed as functional, organism-based.

The structures appear in SMILES notation. In brackets after ≈: the same amount, converted by molar mass. Some results are limits rather than exact numbers.

The values that follow come from ChEMBL document CHEMBL1140555, “Synthesis and evaluation of novel pyrazolidinone analogs of PGE2 as EP2 and EP4 receptors agonists” (Bioorg Med Chem Lett, 2007).

T1 sequence (P43116 whole entry): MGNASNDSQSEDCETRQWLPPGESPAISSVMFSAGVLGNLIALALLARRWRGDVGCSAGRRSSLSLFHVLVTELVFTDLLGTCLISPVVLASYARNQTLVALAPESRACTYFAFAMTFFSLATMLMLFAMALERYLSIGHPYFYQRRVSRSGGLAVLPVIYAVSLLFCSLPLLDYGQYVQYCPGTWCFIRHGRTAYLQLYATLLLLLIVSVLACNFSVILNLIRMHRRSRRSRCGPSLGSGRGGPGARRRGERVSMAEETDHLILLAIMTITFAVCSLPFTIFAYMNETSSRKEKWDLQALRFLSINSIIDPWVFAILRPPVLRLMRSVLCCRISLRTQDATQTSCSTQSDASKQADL
T2 sequence (P35408 whole entry): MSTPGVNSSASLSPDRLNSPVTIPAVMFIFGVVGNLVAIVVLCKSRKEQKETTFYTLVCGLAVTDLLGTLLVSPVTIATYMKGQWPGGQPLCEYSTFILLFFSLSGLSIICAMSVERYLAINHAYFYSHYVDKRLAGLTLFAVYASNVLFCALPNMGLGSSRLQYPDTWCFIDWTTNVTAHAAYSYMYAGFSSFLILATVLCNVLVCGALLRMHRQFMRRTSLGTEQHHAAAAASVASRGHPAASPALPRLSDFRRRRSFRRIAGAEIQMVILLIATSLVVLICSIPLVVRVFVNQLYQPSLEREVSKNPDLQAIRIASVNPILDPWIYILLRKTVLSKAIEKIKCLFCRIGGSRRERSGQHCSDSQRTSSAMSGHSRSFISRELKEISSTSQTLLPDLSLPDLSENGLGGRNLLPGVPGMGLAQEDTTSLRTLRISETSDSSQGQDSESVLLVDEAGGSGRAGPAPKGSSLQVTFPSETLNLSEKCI

In general, Ki refers to a measure of affinity in units of concentration, obtained from inhibition or displacement. The low end stands for tighter binding, the high end for weaker binding. `O=C(O)c1ccc(CCN2C(=O)CCN2CC[C@@H](O)Cc2ccccc2)cc1`: the Ki in [1] came out at 9200 nM; in data set [2], 134 nM.

Broadly, the EC50 is the concentration giving half of the maximal effect. A low value points to higher potency in that assay. `O=C(O)c1ccc(CCN2C(=O)CCN2CCC(O)Cc2cccc(Cl)c2)cc1` (stereo unspecified) had an EC50 in [3] of 0.2 nM.

For the compound `O=C(O)c1ccc(CCN2C(=O)CCN2CC[C@@H](O)Cc2cccc(Br)c2)cc1`, the Ki came to 3070 nM in data set [1] and 13 nM in [2]. Also, the results for the concentration for a half-maximal effect (EC50) in data set [4] and in [3] were greater than 10000 nM and 0.1 nM, respectively.

As for `O=C(O)c1ccc(CCN2C(=O)CCN2CCC(O)Cc2ccccc2)cc1` (stereo unspecified), the Selectivity ratio in the data set filed under Homo sapiens was 100.

A word on the Papp: it is the rate of passage across a membrane or cell layer, normalised by area and donor concentration. For orientation: half-life means how long it takes for the measured level to halve. A lower half-life goes with fast loss. What is called fraction unbound is the share of the substance not bound to proteins or other matrix. Lower therefore signals extensive binding. In general, solubility refers to how much of the substance goes into solution per volume. Higher therefore signals a readily soluble substance. The term bioavailability denotes the share of a dose that reaches the circulation, judged against a reference dose that is usually intravenous. Low readings indicate little systemic uptake, high ones much systemic uptake. As to `O=C(O)c1ccc(CCN2C(=O)CCN2CCC(O)Cc2cccc(Br)c2)cc1` (stereo unspecified), the apparent permeability coefficient (Papp) in [5] is 10 ×10⁻⁶ cm/s. Besides, the figures for the Ki in data set [1] and in data set [2] were 5450 nM and 13 nM, respectively. The compound further showed a half-life in data set [6] of 4.25 h. The compound also displayed a fraction unbound in [7] of 0.61. Besides, the solubility amounted to 890 µg/mL (≈ 1930 µM) in data set [8] and 840 µg/mL (≈ 1820 µM) in data set [9]. Besides, the remaining at 1 h in data set [10] was found to be 0%; in data set [12] it was 7%. This compound also displayed a bioavailability in data set [11] of 6.7%. In the data set with Mus musculus, the Activity result is “Dose-dependent effect”. In data set [3], this compound showed an EC50 of 0.2 nM.

On to `CC(CCN1CCC(=O)N1CCc1ccc(C(=O)O)cc1)Cc1cccc(CCc2ccccc2)c1` (stereo unspecified), for which the Ki in [1] is 560 nM; in [2] it was 44 nM.

Consider `O=C(O)c1ccc(CCN2C(=O)CCN2CCC(O)Cc2cccc(I)c2)cc1` (stereo unspecified), for which the Ki in data set [1] came to 2360 nM; in data set [2] it was 27 nM.

In the case of `O=C(O)c1ccc(CCN2C(=O)CCN2CC[C@@H](O)Cc2cccc(I)c2)cc1`, the Ki in data set [1] came to 2030 nM; in data set [2] it was 26 nM.

As for `O=C(O)c1ccc(CCN2C(=O)CCN2CCC(O)Cc2cccc(CCC3CC3)c2)cc1` (stereo unspecified), the Ki amounted to 8340 nM in [1] and 330 nM in data set [2].

Turning to `CCCCCC(O)CCN1CCC(=O)N1CCc1ccc(C(=O)O)cc1` (stereo unspecified), in the data set listed under Homo sapiens, the Selectivity ratio came out at 10.

As to `O=C(O)c1ccc(CCN2C(=O)CCN2CCC(O)Cc2cccc(C(F)(F)F)c2)cc1` (stereo unspecified), the inhibition constant (Ki) was found to be 6000 nM in [1] and 57 nM in data set [2].

For the compound `CCCC1([C@H](O)C/C=C/[C@H]2[C@H](O)CC(=O)[C@@H]2CCCCCCC(=O)OC)CCC1` [BUTAPROST], the results for the inhibition constant Ki in [1] and in data set [2] were 110 nM and greater than 10000 nM, respectively.

Turning to `CCCC1(C(O)CCCN2CCC(=O)N2CCc2ccc(C(=O)O)cc2)CCC1` (stereo unspecified), the Ki in data set [1] was 750 nM; in data set [2], greater than 50000 nM. For the same compound, a half-maximal effect in data set [4] (EC50) was put at 393 nM.
